Measured values taken from US6875760B2 (Novo Nordisk A/S, priority 1999, dated 2005).

target: T1, cloned human glucagon receptor (Homo sapiens, UniProt P47871); test: Glucagon Binding Assay (II); details: plasma membranes of BHK cells expressing the receptor; read-out: Glu Bd Assay (II) IC50
T1 construct: expressed in transfected cells; plasma membrane preparation
T1 sequence (P47871 26-477): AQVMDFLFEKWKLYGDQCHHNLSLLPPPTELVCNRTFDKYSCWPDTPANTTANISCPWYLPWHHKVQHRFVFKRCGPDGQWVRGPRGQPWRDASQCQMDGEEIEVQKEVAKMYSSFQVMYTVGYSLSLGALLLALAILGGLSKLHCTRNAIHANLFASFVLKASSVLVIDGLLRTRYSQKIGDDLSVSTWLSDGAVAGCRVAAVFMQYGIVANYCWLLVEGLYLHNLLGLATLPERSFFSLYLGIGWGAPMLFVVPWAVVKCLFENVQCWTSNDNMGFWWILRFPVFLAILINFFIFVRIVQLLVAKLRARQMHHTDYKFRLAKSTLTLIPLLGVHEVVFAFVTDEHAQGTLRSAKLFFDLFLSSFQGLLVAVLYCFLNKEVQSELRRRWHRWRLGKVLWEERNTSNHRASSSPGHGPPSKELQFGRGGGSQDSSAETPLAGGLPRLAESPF

Row | IC50 [µM] | SMILES
1 | 0.224 | CC(C)(C)C1CCC(N(Cc2ccc(C(=O)Nc3nn[nH]n3)cc2)C(=O)C=Cc2c(Cl)cccc2Cl)CC1 (centres unmarked) [Example 477, 4-({(4-tert-Butylcyclohexyl)-[3-(2,6-dichlorophenyl)acryloyl]amino}methyl)-N-(2H-tetrazol-5-yl)benzamide]
2 | 0.017 | O=C(O)CCNC(=O)c1ccc(CN(C(=O)Nc2cc(Cl)cc(Cl)c2)c2ccc(C3CCCCC3)cc2)cc1 [Example 232, 3-{4-[1-(4-Cyclohexylphenyl)-3-(3,5-dichlorophenyl)ureidomethyl]benzoylamino}propionic acid]
3 | 0.242 | CC(C)(C)C1CCC(N(Cc2ccc(CNc3nn[nH]n3)cc2)C(=O)Nc2ccc(OC(F)(F)F)cc2)CC1 (mixture of isomers) [Example 579, 1-(4-tert-Butylcyclohexyl)-1-{4-[(2H-tetrazol-5-ylamino)methyl]benzyl}-3-(4-trifluoromethoxyphenyl)urea]
4 | 0.874 | CC(C)(C)[C@H]1CC[C@H](N(Cc2ccc(C(=O)NCCC(=O)O)cc2)C(=O)c2ccc(OC(F)(F)F)cc2)CC1 [Example 586, 3-(4-{[(trans-4-tert-Butylcyclohexyl)-(4-trifluoromethoxybenzoyl)amino]methyl}benzoylamino)propionic acid]
5 | 0.36 | O=C(O)CCNC(=O)c1ccc(CN(C(=O)Nc2ccc(OC(F)(F)F)cc2)C2Cc3ccccc3C2)cc1 [Example 137, 3-{4-[1-(1-Indan-2-yl)-3-(4-trifluoromethoxyphenyl)ureidomethyl]benzoylamino)propionic acid]
6 | 0.726 | C[C@H](NC(=O)N(Cc1ccc(C(=O)NCCC(=O)O)cc1)c1ccc(C2CCCCC2)cc1)c1ccccc1 [Example 609, 3-{4-[1-(4-Cyclohexylphenyl)-3-((1S)-1-phenylethyl)ureidomethyl]benzoylamino}propionic acid]
7 | 0.322 | O=C(Nc1nn[nH]n1)c1ccc(CN(Cc2cccc(Cl)c2)c2ccc(C3CCCCC3)cc2)cc1 [Example 585, 4-{[(3-Chlorobenzyl)-(4-cyclohexylphenyl)amino]methyl}-N-(2H-tetrazol-5-yl)benzamide]
8 | 0.575 | CC1C(N(Cc2ccc(C(=O)NCCC(=O)O)cc2)C(=O)Nc2cc(Cl)cc(Cl)c2)CC2CC1C2(C)C (centres unmarked) [Example 114]
9 | 0.026 | O=C(Nc1nn[nH]n1)c1ccc(CN(C(=O)Nc2cccc(I)c2)c2ccc(C3=CCCCC3)cc2)cc1
10 | 0.156 | O=C(Nc1nn[nH]n1)c1ccc(CN(Cc2ccc(OC(F)(F)F)cc2)c2ccc(C3CCCCC3)cc2)cc1 [Example 388, 4-{[(4-Cyclohexylphenyl)-(4-trifluoromethoxybenzyl)amino]methyl}-N-(2H-tetrazol-5-yl)benzamide]
11 | 0.039 | O=C(Nc1nn[nH]n1)c1ccc(CN(C(=O)NCc2ccc(Cl)c(Cl)c2)c2ccc(C3CCCCC3)cc2)cc1 [Example 595, 4-[1-(4-Cyclohexylphenyl)-3-(3,4-dichlorobenzyl)ureidomethyl}-N-(2H-tetrazol-5-yl)benzamide]
12 | 0.152 | O=C(NCc1nn[nH]n1)c1ccc(CN(Cc2ccc(OC(F)(F)F)cc2)[C@H]2CC[C@@H](C3CCCCC3)CC2)cc1 [Example 573, 4-({(4-cis-Cyclohexylcyclohexyl)-[4-(trifluoromethoxy)benzyl]amino}methyl)-N-(2H-tetrazol-5-ylmethyl)benzamide]
13 | 0.014 | CC(C)(C)[C@H]1CC[C@H](N(Cc2ccc(C(=O)NCCC(=O)O)cc2)C(=O)Nc2ccc(SC(F)(F)F)cc2)CC1 [Example 235]
14 | 0.468 | CC(C)(C)C1CCC(N(Cc2ccc(S(=O)(=O)NCCC(=O)O)cc2)C(=O)Nc2ccc(OC(F)(F)F)cc2)CC1 (centres unmarked) [Example 106, 3-{4-[1-(4-tert-Butylcyclohexyl)-3-(4-trifluoromethoxyphenyl)ureidomethyl]benzenesulfonylamino)propionic acid]
15 | 0.354 | O=C(Nc1nn[nH]n1)c1ccc(CN(C(=O)Nc2ccc3[nH]ccc3c2)c2ccc(C3CCCCC3)cc2)cc1 [Example 594, 4-{1-(4-Cyclohexylphenyl)-3-(1H-indol-5-yl)ureidomethyl]-N-(2H-tetrazol-5-yl)benzamide]
16 | 0.207 | C[C@@H](NC(=O)N(Cc1ccc(C(=O)Nc2nn[nH]n2)cc1)c1ccc(C2CCCCC2)cc1)c1ccccc1 [Example 598, 4-[1-(4-Cyclohexylphenyl)-3-((1R)-1-phenylethyl)ureidomethyl]-N-(2H-tetrazol-5-yl)benzamide]
17 | 0.112 | CC1(C)[C@@H]2CC[C@@H](CN(Cc3ccc(C(=O)NCCC(=O)O)cc3)C(=O)Nc3ccc(OC(F)(F)F)cc3)[C@@H]1C2 [Example 234, 3-{4-[1-([(1S,2R,5R)-6,6-Dimethylbicyclo[3.1.1]hept-2-yl]methyl)-3-(4-trifluoromethoxyphenyl)ureidomethyl]benzoylamino}propionic acid]
18 | 0.004 | Cc1cc(C)c(Cc2ccc(C(=O)NN(Cc3ccc(C(=O)NCCC(=O)O)cc3)[C@H]3CC[C@@H](C(C)(C)C)CC3)o2)c(C)c1 [Example 591, 3-(4-{N-(cis-4-tert-Butylcyclohexyl)-N′-[5-(2,4,6-trimethylbenzyl)furan-2-carbonyl]hydrazinomethyl}benzoylamino)propionic acid]
19 | 0.454 | Cc1ccc(CN(CCc2ccc(Cl)cc2Cl)Cc2ccc(C(=O)NCCC(=O)O)cc2)cc1 [Example 153]
20 | 0.008 | O=C(Nc1nn[nH]n1)c1ccc(CN(C(=O)Nc2cc(Cl)cc(Cl)c2)c2ccc(C3=CCCCC3)cc2)cc1 [Example 593, 4-[1-(4-Cyclohex-1-enylphenyl)-3-(3,5-dichlorophenyl)ureidomethyl]-N-(2H-tetrazol-5-yl)benzamide]
21 | 0.108 | O=C(O)CCNC(=O)c1ccc(CN(Cc2cc(Cl)cc(Cl)c2)c2ccc(C3CCCCC3)cc2)cc1 [Example 582, 3-(4-{[(4-Cyclohexylphenyl)-(3,5-dichlorobenzyl)amino}methyl]benzoylamino)propionic acid]

Row | SMILES | IC50 [µM]
22 | CCCCOc1ccc(C(=O)NN(Cc2ccc(C(=O)NCCC(=O)O)cc2)C2Cc3ccccc3C2)cc1 [Example 587, 3-{4-[N′-(4-Butoxybenzoyl)-N-indan-2-ylhydrazinomethyl]benzoylamino}propionic acid] | 0.692

same assay, conditions: screened at 1 μM; library compounds; read-out: displacement of the glucagon tracer when screened at 1 μM concentration in the glucagon binding assay II

Row | inhibition at 1 µM [%] | SMILES
23 | > 50 | CC(C)(C)C1CCC(N(Cc2ccc(C(=O)Nc3ccc(O)c([N+](=O)[O-])c3)cc2)C(=O)Nc2ccc(OC(F)(F)F)cc2)CC1 (centres unmarked) [Example 163, 4-[1-(4-tert-Butylcyclohexyl)-3-(4-trifluoromethoxyphenyl)ureidomethyl]-N-(4-hydroxy-3-nitrophenyl)benzamide]
24 | > 50 | CC(C)(C)C1CCC(N(Cc2ccc(OCCCC(=O)O)cc2)C(=O)Nc2cccc(SC(F)(F)F)c2)CC1 (centres unmarked) [Example 198, 4-{4-[1-(4-tert-Butylcyclohexyl)-3-(3-trifluoromethylsulfanylphenyl)ureidomethyl]phenoxy}butyric acid]
25 | > 50 | O=C(O)CCNC(=O)c1ccc(CN(C(=O)NCOc2ccc3ccccc3c2)c2ccc3c(c2)OC(F)(F)C(F)(F)O3)cc1 [Example 205, 3-{4-[3-(Naphthalen-2-yloxymethyl)-1-(2,2,3,3-tetrafluoro-2,3-dihydro-benzo[1,4]dioxin-6-yl)ureidomethyl]benzoylamino}propionic acid]
26 | > 50 | CC(C)(C)C1CCC(N(Cc2ccc(C(=O)Nc3ccc(O)c([N+](=O)[O-])c3)cc2)C(=O)Nc2cc(Cl)cc(Cl)c2)CC1 (centres unmarked) [Example 169, 4-[1-(4-tert-Butylcyclohexyl)-3-(3,5-dichlorophenyl)ureidomethyl]-N-(4-hydroxy-3-nitrophenyl)benzamide]
27 | > 50 | O=C(O)CCNC(=O)c1ccc(CN(CCC(c2ccccc2)c2ccccc2)Cc2ccc(C(F)(F)F)cc2)s1 [Example 142, 3-(5-{[(3,3-Diphenylpropyl)-(4-trifluoromethylbenzyl)amino]methyl}thiophene-2-carbonylamino)propionic acid]
28 | > 50 | CC(C)(C)C1CCC(N(Cc2ccc(C(=O)Nc3ccc4c(c3)OCCO4)cc2)C(=O)Nc2ccc(Cl)cc2)CC1 (centres unmarked) [Example 160, 4-[1-(4-tert-Butylcyclohexyl)-3-(4-chlorophenyl)ureidomethyl]-N-(2,3-dihydro-1,4-benzodioxin-6-yl)benzamide]
29 | > 50 | CC(C)(C)C1CCC(N(Cc2ccc(C(=O)Nc3ncnc4[nH]ncc34)cc2)C(=O)Nc2ccc(Cl)cc2)CC1 (centres unmarked) [Example 164, 4-[1-(4-tert-Butylcyclohexyl)-3-(4-chlorophenyl)ureidomethyl]-N-(1H-pyrazolo[3,4-d]pyrimidin-4-yl)benzamide]
30 | > 50 | O=C(O)CCNC(=O)c1ccc(CN(Cc2ccccc2OC(F)(F)F)C(=O)Nc2ccc(SC(F)(F)F)cc2)s1 [Example 126, 3-{5-[1-(2-Trifluoromethoxybenzyl)-3-(4-trifluoromethylsulfanylphenyl)ureidomethyl]thiophene-2-carbonylamino)propionic acid]
31 | > 50 | CC1(C)C2CCC(CN(Cc3ccc(OCCCC(=O)O)cc3)C(=O)Nc3ccc(OC(F)(F)F)cc3)C1C2 (centres unmarked) [Example 214, 4-{4-[1-(6,6-Dimethylbicyclo[3.1.1]hept-2-ylmethyl)-3-(4-trifluoromethoxyphenyl)ureidomethyl]phenoxy}butyric acid]
32 | > 50 | O=C(O)CCNC(=O)c1ccc(CN(CCC(c2ccccc2)c2ccccc2)Cc2ccc(C(F)(F)F)cc2)cc1 [Example 141, 3-(4-{[(3,3-Diphenylpropyl)-(4-trifluoromethylbenzyl)amino]methyl}benzoylamino)propionic acid]
33 | > 50 | CC(=O)N1CCc2cc(N(Cc3ccc(C(=O)NCCC(=O)O)cc3)C(=O)NCOc3ccc4ccccc4c3)ccc21 [Example 206, 3-{4-[1-(1-Acetyl-2,3-dihydro-1H-indol-5-yl)-3-(naphthalen-2-yloxymethyl)ureidomethyl]benzoylamino}propionic acid]

target: T2, human glucagon receptor (Homo sapiens, UniProt P47871); test: Glucagon Binding Assay (III); details: BHK cell membranes, WGA SPA beads, 125I-glucagon; read-out: Glu Bd Assay (III) IC50
T2 construct: expressed in transfected cells; host or cells: BHK (baby hamster kidney) cells
T2 sequence (P47871 26-477): as above
Summary of the method: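 Membranes from BHK cells transfected with the human receptor, prepared at 4 °C, were used in a WGA-bead scintillation proximity binding format. Plates were shaken for 4 hours, left to settle 8–48 hours and then counted. Non-specific binding was defined with 500 nM glucagon.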

Row | IC50 [µM] | SMILES
34 | 0.464 | CC(C)(C)C1CCC(N(Cc2ccc(C(=O)Nc3nn[nH]n3)cc2)C(=O)C=Cc2c(Cl)cccc2Cl)CC1 (centres unmarked) [Example 477, 4-({(4-tert-Butylcyclohexyl)-[3-(2,6-dichlorophenyl)acryloyl]amino}methyl)-N-(2H-tetrazol-5-yl)benzamide]
35 | 0.03 | O=C(O)CCNC(=O)c1ccc(CN(C(=O)Nc2cc(Cl)cc(Cl)c2)c2ccc(C3CCCCC3)cc2)cc1 [Example 232, 3-{4-[1-(4-Cyclohexylphenyl)-3-(3,5-dichlorophenyl)ureidomethyl]benzoylamino}propionic acid]
